From publication PMC8537711, “Mechanistic Insights into Binding of Ligands with Thiazolidinedione Warhead to Human Histone Deacetylase 4” (Pharmaceuticals, 2021)

What was measured:
[1] = biological target: T1, cdHDAC4wt (catalytic domain of human wild type histone deacetylase 4) (Homo sapiens, UniProt P56524); assay: IC50 determination, enzyme activity assay with Boc-Lys{TFA}-AMC; format: biochemical; details: mean ± SD, N = 3
T1 construct: consists of 410 amino acids (human HDAC4 T648-T1057) and has a molecular weight of 44.2 kDa; His6-SUMO (cleaved yes); made in house; host or cells: E. coli (BL21) DE3 pLysS, pET14b vector
T1 sequence (P56524 648-1057): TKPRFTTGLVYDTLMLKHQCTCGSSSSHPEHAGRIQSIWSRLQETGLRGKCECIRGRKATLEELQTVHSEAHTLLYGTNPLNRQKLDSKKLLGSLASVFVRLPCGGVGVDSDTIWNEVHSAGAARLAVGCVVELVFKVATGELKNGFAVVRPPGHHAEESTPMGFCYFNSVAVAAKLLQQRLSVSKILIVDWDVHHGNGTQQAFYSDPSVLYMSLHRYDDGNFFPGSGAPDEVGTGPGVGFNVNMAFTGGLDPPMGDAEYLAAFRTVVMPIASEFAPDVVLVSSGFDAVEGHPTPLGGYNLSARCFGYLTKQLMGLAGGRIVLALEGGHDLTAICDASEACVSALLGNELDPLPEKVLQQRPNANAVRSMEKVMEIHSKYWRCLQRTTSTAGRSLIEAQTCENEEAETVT
Experimental: Afterwards the enzymatic reaction was initiated by the addition of 20 µM Boc-Lys{TFA}-7-Amino-4-methylcoumarin (Bachem, Bubendorf, Switzerland) as substrate. […] The deacetylated substrate was converted into a fluorescent product by the addition of 0.4 mg/mL trypsin (AppliChem, Darmstadt, Germany). The release of fluorogenic substrate was followed in a microplate reader (PherStar Plus, BMG Labtech, Ortenberg, Germany) at 450 nm (λEx = 350 nm) and correlated to enzyme activity.
All incubations steps were performed for 60 min at 30 °C and 450 rpm.

cdHDAC4wt [2] = biological target: T2, cdHDAC4wt (Homo sapiens, UniProt P56524); assay: Association kinetics (semi continuous enzyme activity assay, kobs vs inhibitor concentration); format: biochemical; details: for residence time: 1/koff (two step) or 1/k−3 (one step), read-out: RT (KF), residence time from kinetic fit; for forward isomerization rate constant (k2) / koff / kon: two step model; for forward isomerization rate constant (k2) / koff: isomerization rate; for koff: y-axis intercept; for Ki: two step induced fit model, read-out: K1 (equilibrium constant of initial encounter complex); for y-intercept of kobs plot (k−3): linear regression; for y-intercept of kobs plot (k−3) / k3 / k−3: one step model; for k3: slope of kobs vs ligand concentration; for k−3: y-intercept
T2 construct: consists of 410 amino acids (human HDAC4 T648-T1057) and has a molecular weight of 44.2 kDa; His6-SUMO (cleaved yes); made in house; host or cells: E. coli (BL21) DE3 pLysS, pET14b vector
T2 sequence (P56524 648-1057): as above
Experimental: A serial dilution of inhibitor beginning at 10-fold of respective IC50-value in assay buffer (25 mM Tris-HCl, pH 8.0, 75 mM KCl, 0.001% Pluronic F-127) was made in a black 96-well microtiter half-area plate (Greiner, Kremsmuenster, Austria). The dilutions were added to 3 nM cdHDAC4wt. Shortly after, the reaction was initiated by adding 20 µM Boc-Lys{TFA}-7-Amino-4-methylcoumarin (Bachem, Bubendorf, Switzerland) as substrate. […] Finally 0.4 mg/mL trypsin was added to split the deacetylated substrate in the fluorescent product which was measured at 450 nm (λEx = 350 nm) (PherStar Plus, BMG Labtech, Ortenberg, Germany). […] The standardized RFUs were plotted against the incubation time. […] Due to this knowledge the data were fitted via non linear regression with GraphPad Prism program to the following equation by Copeland [27]:(2) Y=νs·t+νi−νs/kobs·(1−e^(−kobs·t))+d where vi is the initial slope, vs is the second lower slope, kobs is the respective rate constant, t is time and d the correction for possible data offset.
Afterwards kobs values were plotted against their respective inhibitor concentration.

cdHDAC4wt [3] = biological target: T2, cdHDAC4wt; assay: Reversibility assay via rapid dilution; residence time from reversibility data; format: biochemical; details: first order dissociation assumed; read-out: RT (RD), residence time from rapid dilution
Experimental: Rapid dilution was performed by diluting the incubated mixture 100-fold with substrate (Boc-Lys{TFA}-7-Amino-4-methylcoumarin (Bachem, Bubendorf, Switzerland)) with the final substrate concentration being 20 µM. […] A positive control without TZD ligand and a blank without enzyme and TZD ligand were also carried out. […] Once again the final substrate concentration was 20 µM. […] The deacetylated substrate was converted into a fluorescent product by the addition of 0.4 mg/mL trypsin (AppliChem, Darmstadt, Germany). The release of fluorogenic substrate was followed in a microplate reader (PherStar Plus, BMG Labtech, Ortenberg, Germany) at 450 nm (λEx = 350 nm) and correlated the positive control. […] All incubations steps were performed for 60 min at 30 °C and 450 rpm. The substrate was preheated to 30 °C before the rapid dilution step.
The reciprocal values for k equals the residence time of the respective TZD ligand (residence time = koff^−1), which can be compared with the residence times gained from association data.

cdHDAC4 mutant variants = assay: Mutational study: Ki (Cheng-Prusoff from IC50) against cdHDAC4 mutant variants relative to wild type; format: biochemical, human; details: exchange of S758, D759, E764, T808, F812, F871 and L943
Experimental: To gain an thorough knowledge of the most involved amino acids necessary for molecular recognition of TZD ligands to cdHDAC4wt, a comprehensive mutational study was designed. Amino acids flanking the active site binding pocket in the closed (Figure 5A) and open (Figure 5B) conformation of the enzyme were systematically exchanged and IC50-values of a subset of 25 TZDs were determined against every mutant variant. Because IC50-values depends on the substrate concentration and the Km of the substrate, the Michaelis Menten parameters were determined first using substrate tert-butyl N-[(2S)-1-[(4-methyl-2-oxochromen-7-yl)amino]-1-oxo-6-[(2,2,2-trifluoroacetyl)amino]hexan-2-yl]carbamate (Boc-Lys{TFA}-AMC) in a semi continuous enzyme activity assay (Figure 5C and Figure S1). IC50-values were transformed into binding constant Ki using the Cheng-Prusoff equation to enable a fair comparison of ligand affinities to the respective HDAC4 variant:(1) IC50=(1+[S]/Km)×Ki
A serial dilution of TZD in assay buffer (25 mM TRIS-HCl, 75 mM KCl, 0.001% Pluronic F-127, pH 8.0) was incubated with 1 nM cdHDAC4wt in a black 96-well microtiter plate (Greiner). […] The release of fluorogenic substrate was followed in a microplate reader (PherStar Plus, BMG Labtech, Ortenberg, Germany) at 450 nm (λEx = 350 nm) and correlated to enzyme activity. […]

cdHDAC4wt [4] = biological target: T2, cdHDAC4wt; assay: Michaelis Menten kinetics for mode of action; format: biochemical; details: increasing Km, essentially unchanged vmax with increasing compound concentration
Experimental: For E677A, F812A, C813S, F871A and H976Y (GoF) 5 nM enzyme were used. […] Signal was developed for 30 min at room temperature and the fluorescence was measured at 450 nm (λEx = 350 nm) in a PherStar Plus (BMG Labtech, Ortenberg, Germany) fluorescence plate reader. […] Afterwards, the product concentration was plotted against the time and v0 (µM/min) was calculated from the resulting slopes. Now the initial velocity was plotted against the substrate concentration and Km was calculated using a Michaelis Menten-Fit in GraphPad Prism. The value of vmax is neglected because enzyme concentration and purity are too inconsistent between the mutant variant to calculate this value appropriate.

SMILES	IC50 [1]	residence time (cdHDAC4wt [2])	forward isomerization rate constant (k2) (cdHDAC4wt [2])	koff (cdHDAC4wt [2])	Ki (cdHDAC4wt [2])	residence time (cdHDAC4wt [3])	y-intercept of kobs plot (k−3) (cdHDAC4wt [2])	k3 (cdHDAC4wt [2])	k−3 (cdHDAC4wt [2])	kon (cdHDAC4wt [2])	log10Ki ratio (Ki mutant / Ki wildtype) (cdHDAC4 mutant variants)	mode of inhibition (cdHDAC4wt [4])
O=C1NC(=O)/C(=C/c2ccc3cc(OCC(=O)N4N=C(c5ccccc5)CC4c4ccccc4F)ccc3c2)S1 (stereo not drawn) [8b]	0.33 ± 0.02 µM	11 ± 3 min	0.003 ± 0.0006 s⁻¹	0.0015 ± 0.0004 s⁻¹	0.65 ± 0.47 µM	29 ± 3 min	–	–	–	–	–	–
O=C(COc1ccc2cc(/C=C3\SC(=O)NC3=O)ccc2c1)Nc1ccc(C(F)(F)F)cc1 [7i]	1.3 ± 0.1 µM	9.3 ± 0.5 min	–	–	–	17 ± 3 min	0.0018 s⁻¹	100 ± 30 M⁻¹ s⁻¹	0.18 ± 0.01 s^−1 (×10^−2)	–	–	–
Cc1ccc(C2CC(c3ccc(F)cc3)=NN2C(=O)COc2ccc3cc(/C=C4\SC(=O)NC4=O)ccc3c2)cc1 (stereo not drawn) [16g]	0.46 ± 0.06 µM	–	0.0051 ± 0.0011 s⁻¹	–	–	15 ± 2 min	–	–	–	–	–	–
O=C1NC(=O)/C(=C/c2ccc3cc(OCC(=O)N4N=C(c5ccccc5)CC4c4cccs4)ccc3c2)S1 (stereo not drawn) [8i]	0.34 ± 0.04 µM	14 ± 4 min	0.0054 ± 0.0005 s⁻¹	0.0012 ± 0.0003 s⁻¹	0.65 ± 0.31 µM	13 ± 8 min	–	–	–	(5.4 ± 0.5) × 10^−3 s^−1	–	–
CC(/C=C/C(=O)NO)=C\[C@@H](C)C(=O)c1ccc(N(C)C)cc1 [TSA, Trichostatin A]	–	–	–	–	–	–	–	–	–	–	above 1	–
O=C1NC(=O)/C(=C/c2ccc(OCC(=O)N3N=C(c4ccccc4)CC3c3ccc(C(F)(F)F)cc3)cc2)S1 (stereo not drawn) [4d]	0.79 ± 0.04 µM	26 ± 11 min	0.008 ± 0.001 s⁻¹	0.0006 ± 0.0003 s⁻¹	1.7 ± 0.7 µM	23 ± 6 min	–	–	–	(8 ± 1) × 10^−3 s^−1	–	–
O=C1NC(=O)/C(=C/c2ccc3cc(OCC(=O)N4N=C(c5ccccc5)CC4c4ccco4)ccc3c2)S1 (stereo not drawn) [8c]	1.2 ± 0.1 µM	12 ± 6 min	0.0021 ± 0.0009 s⁻¹	0.0014 ± 0.0007 s⁻¹	–	12 ± 1 min	–	–	–	(2.1 ± 0.9) × 10^−3 s^−1	–	–
Cc1ccc(C2CC(c3ccccc3)=NN2C(=O)COc2ccc3cc(/C=C4\SC(=O)NC4=O)ccc3c2)cc1 (stereo not drawn) [8g]	0.76 ± 0.08 µM	10 ± 2 min	0.0038 ± 0.0007 s⁻¹	0.0016 ± 0.0003 s⁻¹	3 ± 2 µM	18 ± 7 min	–	–	–	–	–	–
O=C(COc1ccc(/C=C2\SC(=O)NC2=O)cn1)Nc1nc2ccccc2s1 [5w]	–	19 ± 7 min	–	–	–	12 ± 3 min	(8 ± 3) × 10^−4 s^−1	1900 ± 100 M⁻¹ s⁻¹	0.08 ± 0.03 s^−1 (×10^−2)	–	–	competitive inhibitor
